We go through 86 molecules from a melting point compilation (Tetko et al.; mined from patent text by program, amines drawn as free bases though some values may be those of a salt).

As for `COc1cc(C(=O)N(C(C)C)C2CCCCC2)ccc1Cn1c(CO)nc2cccnc21`, the melting point (usually the temperature, or range, at which the solid turns liquid) fell in the range of 124 to 126 °C.

The molecule `CCCS(=O)(=O)c1ccc2c(c1)C(=O)CC2` yielded a melting point of 100 °C.

Take `CC(C)(C)C(NC(=O)c1cccc(Br)c1)Nc1c(Nc2cccnc2Cl)c(=O)c1=O` (stereo unspecified): the melting point lay within 257 to 259 °C.

For the molecule `OCCc1c[nH]c2cc(Cl)c(Cl)cc12`, the melting point is 65 to 67 °C.

Consider `NS(=O)(=O)c1cc2c(s1)S(=O)CC(=O)N2` (stereo unspecified), for which the melting point was in the range of 222 to 223 °C.

Molecule `CNC(=O)c1ccccc1Nc1nc(Nc2c(OC)ccc3c2CCOC(=O)N3C)ncc1Cl` showed a melting point of 160 °C.

As for `CC(C)(C)OC(=O)Nc1ccc(-c2ccccc2F)cc1NC(=O)CC(=O)c1csc(-n2ccnc2)n1`, the melting point was 115 to 130 °C.

For `Cn1c2ccccc2c2nc3cccc(C=O)c3nc21`, the melting point was in the range of 219 to 221 °C.

Regarding `OC(COCc1cccnc1)c1ccc2occc2c1` (stereo unspecified), the melting point fell in the range of 85 to 86 °C.

Turning to `CC(=O)NC[C@H]1CN(c2ccc(-n3nccc3-c3ccc(F)cc3)c(F)c2)C(=O)O1`, the melting point was 111 to 113 °C.

As for `CCCCNC(=O)Oc1ccc(Oc2ccccc2)cc1C(=O)OC`, the melting point lay within 53 to 56 °C.

`COc1cccc(C(=O)C=CC2=CCC(OC)(N(C)C)C=C2)c1OC` (stereo unspecified) returned a melting point of 168 to 169 °C.

Turning to `C[C@H]1[C@H](N(C)C(=O)C(F)(F)F)CN1c1c(F)cc2c(=O)c(C(=O)O)cn(C3CC3)c2c1F` (relative stereo), the melting point lay within 246 to 249 °C.

`O=C(c1cocc1C(=O)N1CCCCC1)N1CCCCC1`: the melting point fell in the range of 180 to 183 °C.

`CC(=O)OC(CF)c1cccnc1S(N)(=O)=O` (stereo unspecified) showed a melting point of 127 to 129 °C.

In turn, `CCCc1nc2c(N)nc3cc(Oc4ccc(N)cc4)ccc3c2n1CC(C)C` displayed a melting point of 190 to 191 °C.

In turn, `Cc1cc(C(C)(C)C)cc(C)c1Cl` gave a melting point of 39 °C.

On to `CCCCc1nn(-c2ccccc2Cl)c(=O)n1Cc1ccc(-c2ccccc2S(=O)(=O)NC(=O)c2ccc(F)cc2)cc1`, for which the melting point lay in the range of 118 to 120 °C.

Molecule `CCCc1ccc(OCCCc2cc3c(cc2O)CCO3)cc1` returned a melting point of 101 to 102 °C.

For the molecule `COc1cc(I)c(C(=O)OC(C)COC(=O)c2ccc3c(c2I)OCO3)cc1OC` (stereo unspecified), the melting point was 131 to 133 °C.

As to `N#Cc1ccc(C=Cc2ccc(-c3cc4ccccc4o3)cc2)cc1`, the melting point was in the range of 314 to 315 °C.

In the case of `CCOc1ccc(CC(=O)OCc2ccc(C#N)cc2)cc1`, the melting point stood at 59 °C.

As to `O=C(O)CN(CCN(CC(=O)O)CC(=O)O)CCN(CC(=O)O)CC(=O)Nc1ccccc1`, the melting point turned out to be 125 °C.

Regarding `c1ccc2c(c1)nc(Nc1ccc3cn[nH]c3c1)c1nc(C3CCCC3)[nH]c12`, the melting point lay within 235 to 236 °C.

With `CC(Cc1cccc(N)c1)(NC=O)c1ccccc1` (stereo unspecified), the melting point lay in the range of 114 to 115 °C.

In the case of `COc1ccc(OCCCN(Cc2cccc(O)c2)c2nc3ccccc3o2)cc1`, the melting point is 104 °C.

Take `Cc1cccc2c1nc(COc1ccc(Cl)cc1)n2CCC(C)C(=O)NCCCN1CCCCC1` (stereo unspecified): the melting point is 102 to 103 °C.

Take `O=[N+]([O-])c1ccc2oc(CBr)cc2c1`: the melting point is 96 to 98 °C.

Regarding `CCSc1cc(C)nc(SCC)c1NC(=O)CCCCCCCSc1nc2ccccc2s1`, the melting point was 94 to 96 °C.

On to `COc1ccc(C(=O)NCCc2ccccc2)cc1OC`, for which the melting point lay within 123 to 124 °C.

`NS(=O)(=O)c1cccc(-c2cccc(-c3nc(-c4ccc(Cl)cc4)cc(C(F)(F)F)n3)c2)c1` registered a melting point of 165 °C.

For `COC(=O)c1ccc(COc2cc3c(=O)n(-c4ccc(NC(=O)OC(C)(C)C)cc4)c(C(=O)OC)c(-c4cc(OC)c(OC)c(OC)c4)c3cc2OC)cc1`, the melting point was in the range of 197 to 199 °C.

Regarding `CC(C)c1nc(C(C)C)c(CSc2ccc(O)cc2)c(-c2ccc(F)cc2)c1CO`, the melting point was in the range of 178 to 179 °C.

Molecule `CC(=O)CC(=O)CCC(=O)CC(C)=O` came in with a melting point of 62.7 to 64 °C.

In turn, `CN(C)CCCNC(=O)c1cccc([N+](=O)[O-])c1Cl` had a melting point of 122 to 125 °C.

Take `CCOC(=O)CS(=O)(=O)CCC=C1SC=CS1`: the melting point is 103 to 104 °C.

For `Cc1ccc(CNC(=O)c2ccc3n2Cc2ccccc2N(C(=O)c2ccc(-c4ccccc4C)c(C)c2)C3)c(C)c1`, the melting point was in the range of 159 to 161 °C.

`Nc1nc(-c2cccc(C(F)(F)F)c2)nc2nc(-c3ccco3)nn12` yielded a melting point of 296 to 298 °C.

`CCCCC1(CCCC)c2cc(Br)ccc2-c2ccc(N(c3ccccc3)c3ccccc3)cc21` gave a melting point of 116 to 118 °C.

Molecule `CC(C)c1nc2ccccc2cc1S(=O)(=O)c1ccc(O)cc1` registered a melting point of 185 °C.

`N#Cc1c(N2CCCCC2)cc(-c2ccccc2)c2c1Cc1ccccc1-2`: the melting point was 140 to 141 °C.

For `N#Cc1ccsc1-c1ccc(CBr)cc1`, the melting point came out at 80 °C.

Regarding `COc1ccc(COc2cccnc2NC(=S)Nc2ccc(Cl)cc2)c(F)c1`, the melting point was in the range of 138 to 140 °C.

`CC1CN(c2cc3c(cc2F)C(=O)c2nc4ccccc4c(=O)n2-3)CCN1` (stereo unspecified) gave a melting point of 225 to 227 °C.

Regarding `Cc1nc(N)c2nc(C)n(CCOCCNC(=O)C(C)C)c2c1C`, the melting point lay within 180 to 182 °C.

`CCCC(=O)O[C@H]1[C@H](OCc2ccccc2)[C@@H](OCc2ccccc2)[C@H](OCc2ccccc2)[C@@H](OCc2ccccc2)[C@]1(O)CCC` (racemic) showed a melting point of 143 °C.

`O=C(O)COc1nnc(C(Cl)(Cl)Cl)s1` gave a melting point of 100 °C.

`CC(=O)NCC1CN(c2ccc(S(=O)(=O)CCO)c(F)c2)C(=O)O1` (stereo unspecified) displayed a melting point of 162 to 163 °C.

With `N#CCCNC(=O)c1cccc(-c2ccc3c(c2)N(Cc2cc(Cl)cc(Cl)c2)CC3)c1`, the melting point is 179 to 180 °C.

In the case of `CC1=C(C(=O)OCCCN(C)C)C(c2ccccc2)C2=C(COC2=O)N1` (stereo unspecified), the melting point lay within 112 to 115 °C.

Take `Cc1ccccc1C(=O)c1ccc(CC(=O)O)n1C`: the melting point is 133 to 135 °C.

Molecule `Cn1c(OC2CCOC2)nn(C(=O)NS(=O)(=O)c2ccccc2OC(F)(F)F)c1=O` (stereo unspecified) showed a melting point of 184 °C.

Molecule `CC(=O)OC[C@@H]1C=C[C@H](n2cnc3c(=O)[nH]c(N)nc32)C1` registered a melting point of 247 to 249 °C.

Molecule `CCCc1ccnc(C(=O)c2[nH]c3cc(Cl)ccc3c2CC(=O)O)c1` yielded a melting point of 189 to 191 °C.

The molecule `O=C(CCNc1c(C(=O)O)[nH]c2cc(Cl)cc(Cl)c12)c1ccc(Cl)cc1` registered a melting point of 279 to 283 °C.

Take `CC(SC1COC(c2ccc(C(=O)Nc3ccc(SC(F)(F)F)cc3)cc2)OC1)C(O)(Cn1cncn1)c1ccc(F)cc1F` (stereo unspecified): the melting point was 95 °C.

Turning to `COc1ccc(N2CCN(c3c(C)c(C)c4c(c3C)C[C@@H](C)O4)CC2)cc1`, the melting point fell in the range of 127 to 128 °C.

In turn, `NS(=O)(=O)NCC=Cc1ccccc1` yielded a melting point of 118 °C.

For the molecule `O=C(COc1ccccc1)N[C@H]1C(=O)N[C@H]1CO` (relative stereo), the melting point fell in the range of 153 to 154 °C.

On to `O=S1(=O)N=C(NC2CCC2)Nc2cc(Cl)c(Cl)cc21`, for which the melting point lay within 320 to 326 °C.

Take `COc1ccc(S(=O)(=O)C(C)(Cc2ccc(OCCCN3CCN(c4cccc(Cl)c4)CC3)cc2)C(=O)NO)cc1` (stereo unspecified): the melting point came out at 122 °C.

As to `COc1ccc(-c2cncc(OC3SCC(O)C(O)C3O)c2)cc1F` (stereo unspecified), the melting point came out at 200 °C.

As to `COC(=O)c1ccc(C(=O)NS(=O)(=O)c2ccc(C(=O)NCCc3ccccc3)cc2)cn1`, the melting point is 228 to 230 °C.

As to `CSc1cc(C(=O)c2cnoc2C2CC2)ccc1C`, the melting point was 85.5 to 86.1 °C.

Consider `CC(C)(C)OC(=O)N1CCN(c2cncc(Cl)n2)CC1`, for which the melting point came out at 108 °C.

Turning to `COC(=O)c1cc(C(C)=O)ccc1OCCCC(=O)O`, the melting point was in the range of 111 to 113 °C.

The molecule `NC(=O)CNC(=O)c1cccc(-c2ccc3c(n2)N(Cc2ccc(Cl)cc2Cl)CC3)c1` displayed a melting point of 183 to 184 °C.

As to `Nc1ccc(SCc2nc(Cl)ccc2Cl)cc1`, the melting point fell in the range of 110 to 111 °C.

In turn, `CCCCCCCCCCCCCCCCNc1ccc(C(=O)NS(=O)(=O)c2ccc([N+](=O)[O-])cc2)cc1` registered a melting point of 130 to 131 °C.

In turn, `Fc1cc(F)cc(Cn2c(S)nc3ccccc32)c1` yielded a melting point of 179 to 180 °C.

The molecule `CCOc1cc(C=O)ccc1OCC(=O)O` came in with a melting point of 90 to 92.6 °C.

As for `COC(=O)CCn1c(C(=O)O)c(C)c2cc(C)ccc21`, the melting point came out at 169 °C.

`O=c1oc(-c2cccc(F)c2)nc2cccc(Cl)c12` had a melting point of 120 to 123 °C.

In turn, `OC1CCCc2nc3sccc3c(NCc3ccccc3)c21` (stereo unspecified) registered a melting point of 180 to 181 °C.

Take `COc1ccc(CS(=O)CC(=O)NO)cc1` (stereo unspecified): the melting point amounted to 160 °C.

Turning to `O=C1C2Cc3cc4ccccc4n3CC2CN1Cc1ccccc1` (stereo unspecified), the melting point lay in the range of 121 to 123 °C.

The molecule `CCc1sc2ncnc(N)c2c1-c1ccc(NC(=O)c2ccccc2)cc1` displayed a melting point of 213 to 214 °C.

Regarding `OC1CSC(Oc2cc(-c3cccnc3)ccc2Cl)C(O)C1O` (stereo unspecified), the melting point is 172 °C.

Take `CCCc1ccnc(C(=O)OCC)c1N`: the melting point was in the range of 93 to 96 °C.

Consider `CN1CCN(C2=Nc3cc(Cl)ccc3Cn3nnnc32)CC1`, for which the melting point lay within 228 to 230 °C.

`COc1ccc(-c2ccnc3c(C(=O)c4cccs4)cnn23)cc1NC(=O)NC(C)C`: the melting point fell in the range of 202 to 204 °C.

Regarding `CC(C)(C)NC(=O)N1CCc2cc(S(=O)(=O)n3cc(-c4ccccc4)[nH]c3=O)ccc21`, the melting point is 222 to 223 °C.

`CCc1cc(CCCOc2c(C)cc(C#N)cc2C)on1` showed a melting point of 50 to 51 °C.

For `O=c1c(-c2ccccc2)c(CSc2ncnc3[nH]cnc23)oc2ccccc12`, the melting point was 208 to 209 °C.

The molecule `CC(C)Oc1cc(-n2c(=O)c(F)c(CF)n(C)c2=O)c(F)cc1Cl` gave a melting point of 79 to 81 °C.

`Cc1cccc(-c2n[nH]cc2-c2ccnc(-c3ccc(OCc4cn(C)cn4)cc3)c2)n1` displayed a melting point of 191 °C.
